Experimental data reported in patent US12122761B2, “2-azaspiro[3.4]octane derivatives as M4 agonists” (NOVARTIS AG, priority 2019, dated 2024).

Legend:
Type in all cases: cell-based
[1] = molecular target: T1, Cloned human M1 receptor (CHRM1) stably expressed in HEK293 cells (Homo sapiens, UniProt P11229); test: CHRM1 Ca++ Flux Assay (agonist mode, FDSS 7000EX); details: for M1 FDSS PA: Percent Activity; for EC50: geometric mean if tested more than once
T1 construct: expressed in transfected cells; host or cells: HEK293
T1 sequence (P11229 1-460): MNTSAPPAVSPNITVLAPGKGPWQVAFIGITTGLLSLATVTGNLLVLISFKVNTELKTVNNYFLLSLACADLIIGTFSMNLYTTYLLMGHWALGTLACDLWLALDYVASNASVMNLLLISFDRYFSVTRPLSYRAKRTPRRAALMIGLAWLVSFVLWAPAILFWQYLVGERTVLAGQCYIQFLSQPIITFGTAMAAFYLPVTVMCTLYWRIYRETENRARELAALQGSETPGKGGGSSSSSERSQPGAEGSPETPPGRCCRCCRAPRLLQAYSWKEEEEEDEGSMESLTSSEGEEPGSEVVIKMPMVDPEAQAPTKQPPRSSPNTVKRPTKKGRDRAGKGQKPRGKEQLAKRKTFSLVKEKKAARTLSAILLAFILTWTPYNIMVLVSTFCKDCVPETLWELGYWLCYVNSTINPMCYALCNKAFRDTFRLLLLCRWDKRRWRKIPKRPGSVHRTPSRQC
Description: (§1) The above examples were characterized by measuring the intracellular mobilization of Ca++ ions caused by signaling events mediated by the receptor. The Intra-cellular Calcium flux levels were captured by the highly sensitive Ca++ indicator, Calcium Assay Kit (BD Biosciences, Catalog Number 640178). The fluorescent activity from all receptors were monitored by the fluorescent imager, FDSS 7000EX (Hamamatsu) over a span of 3 minutes.
Cloned human M1 receptor (CHRM1) was stably expressed in HEK293 cells and were grown and maintained in a monolayer culture with DMEM/High Glucose (Life Technologies) supplemented with 10% Fetal Bovine Serum, 1× Pen-Strep, and 0.5 mg/mL Geneticin in a humidified atmosphere (5% CO2) at 37° C. The cultures were grown to 90% confluency in T150 flasks (Corning) and washed with 1×DPBS and lifted with 0.05% Trypsin (Life Technologies). The cells were then spun (1K rpm, 3 minutes) and frozen using Recovery Cell Culture Freezing Media (Gibco Technologies). Cells were stored in liquid nitrogen and thawed a day before the assay.
Prior to the day of the assay, stable HEK293 M1 cells were thawed and plated on 384 well black walled clear bottom TC treated plates (Greiner Cat #781091) at 25K cells/well with DMEM/High Glucose supplemented with 10% FBS (Hyclone) Pen-Strep (Life Technologies) and kept overnight in a humidified atmosphere (5% CO2) at 37° C. The following day, cells were loaded with 20 uL Ca^++ dye (BD Biosciences) using Loading Buffer (HBSS +Ca/+Mg, 20 mM HEPES) and placed back in cell incubator for a minimum of 1 hour. The dye was replaced with 45 μL Assay Buffer (HBSS −Ca/−Mg, 20 mM HEPES) and kept at room temperature prior to running on cell imager. Compounds were prepared in Assay Buffer and 5 uL was added to the cells. The FDSS 7000EX (Hamamatsu) was used to acquire Ca++ traces for 3 minutes from cells treated with 11 point dose in triplicate in order to generate dose response curves in agonist mode. All compounds were serially diluted in DMSO then prepared in Assay Buffer for Ca^++ flux studies. The dose response curves were generated from the average of triplicate wells obtained from each data point and used a non-linear regression of four parameter dose response algorithm. The Percent Activity (PA) was measured to EC100 of Carbachol.

[2] = molecular target: T2, human cloned CHRM3 receptor (M3_CHO cells) (Homo sapiens, UniProt P20309); test: CHRM3 Ca++ Flux Assay (agonist mode, FDSS 7000EX); details: for EC50: agonist mode, geometric mean if tested more than once, read-out: M3 FDSS EC50
T2 construct: expressed in transfected cells; host or cells: CHO-K1
Description: as §1
(§2) CHO-K1 cells stably expressing the human cloned CHRM3 receptor (M3_CHO cells) were grown and maintained in a monolayer culture with F12/HAM (Life Technologies) supplemented with 10% Fetal Bovine Serum, 1× Pen-Strep, and 0.4 mg/mL Geneticin in a humidified atmosphere (5% CO2) at 37° C. The cultures were grown to 80-9 0% confluency in T150 flasks (Corning) and washed with 1×DPBS and lifted with 0.05% Trypsin (Life Technologies). The cells were then spun (1K rpm, 3 minutes) and frozen using Recovery Cell Culture Freezing Media (Gibco Technologies). Cells were stored in liquid nitrogen and thawed a day before the assay. A similar procedure was used for cells stably expressing the human cloned CHRM5 receptor (M5_CHO).
(§3) Prior to the day of the assay, stable M3_CHO or M5_CHO cells were thawed and plated on Greiner 384 well black TC treated plates at 12K cells/well in F12/DMEM supplemented with 10% FBS (Hyclone) and kept overnight in a humidified atmosphere (5% CO2) at 37° C. The next day, cells were loaded with Ca^++ dye (BD Biosciences) using Loading Buffer (HBSS +Ca/+Mg, 20 mM HEPES, 2.5 mM Probenecid) and placed back in cell incubator for a minimum of 1 hour. After incubation, the dye was replaced with Assay Buffer (HBSS −Ca/−Mg, 20 mM HEPES, 2.5 mM Probenecid) and kept at room temperature in the dark before running on cell imager. The FDSS 7000EX (Hamamatsu) was used to acquire Ca^++ traces from cells treated with 11 point dose response of compounds in triplicate in order to generate dose response curves in agonist mode. All compounds were serially diluted in DMSO then prepared in Assay Buffer for Ca^++ flux studies. The dose response curves were generated from the average of triplicate wells obtained from each data point and used a non-linear regression of four parameter dose response algorithm. The Percent Activity (PA) was measured to EC100 of Carbachol.

[3] = molecular target: T3, human cloned CHRM5 receptor (M5_CHO) (Homo sapiens, UniProt P08912); test: CHRM5 Ca++ Flux Assay (agonist mode, FDSS 7000EX); details: for EC50: agonist mode, geometric mean if tested more than once, read-out: M5 FDSS EC50
T3 construct: expressed in transfected cells; host or cells: CHO (M5_CHO)
T3 sequence (P08912 1-532): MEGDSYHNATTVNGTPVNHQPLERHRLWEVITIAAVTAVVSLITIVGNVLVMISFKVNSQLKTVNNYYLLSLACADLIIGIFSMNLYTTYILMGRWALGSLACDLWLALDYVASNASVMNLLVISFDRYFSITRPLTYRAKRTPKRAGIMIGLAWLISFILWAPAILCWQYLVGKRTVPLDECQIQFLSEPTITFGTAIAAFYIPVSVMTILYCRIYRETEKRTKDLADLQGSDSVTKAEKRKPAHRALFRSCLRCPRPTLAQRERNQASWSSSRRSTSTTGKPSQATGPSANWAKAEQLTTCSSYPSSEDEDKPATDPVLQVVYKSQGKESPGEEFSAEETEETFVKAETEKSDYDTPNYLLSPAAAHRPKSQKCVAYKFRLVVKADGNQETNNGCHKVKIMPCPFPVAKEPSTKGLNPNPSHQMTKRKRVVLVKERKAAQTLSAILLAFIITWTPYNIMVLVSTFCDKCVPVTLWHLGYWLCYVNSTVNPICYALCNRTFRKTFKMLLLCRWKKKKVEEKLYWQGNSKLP
Description: as §1, §2, §3

[4] = Percent Activity measured to EC100 of Carbachol

T2 sequence (P20309 whole entry): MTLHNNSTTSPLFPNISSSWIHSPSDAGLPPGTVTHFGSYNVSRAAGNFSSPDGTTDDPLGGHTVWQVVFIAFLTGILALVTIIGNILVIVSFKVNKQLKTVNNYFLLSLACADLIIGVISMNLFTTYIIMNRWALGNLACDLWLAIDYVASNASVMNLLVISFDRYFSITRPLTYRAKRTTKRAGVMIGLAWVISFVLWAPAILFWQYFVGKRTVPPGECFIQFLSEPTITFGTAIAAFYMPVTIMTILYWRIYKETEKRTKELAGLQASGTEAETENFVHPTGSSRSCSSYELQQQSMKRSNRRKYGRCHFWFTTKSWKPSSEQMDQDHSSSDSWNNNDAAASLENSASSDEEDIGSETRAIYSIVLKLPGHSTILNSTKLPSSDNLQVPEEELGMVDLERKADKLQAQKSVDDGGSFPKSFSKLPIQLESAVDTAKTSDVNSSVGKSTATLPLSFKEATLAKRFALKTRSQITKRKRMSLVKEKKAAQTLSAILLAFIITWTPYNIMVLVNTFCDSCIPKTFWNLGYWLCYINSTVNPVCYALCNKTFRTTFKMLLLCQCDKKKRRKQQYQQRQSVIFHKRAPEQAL

SMILES	M1 FDSS PA [1] [%]	EC50 [1] [µM]	M3 FDSS PA [2, 4] [%]	EC50 [2] [µM]	M5 FDSS PA [3, 4] [%]	EC50 [3] [µM]	Emax ([1]; HEK293, Percent Activity, read-out: M1 FDSS PA) [%]	Emax ([2]; Percent Activity measured to EC100 of Carbachol, read-out: M3 FDSS PA) [%]	Emax ([3]; Percent Activity measured to EC100 of Carbachol, read-out: M5 FDSS PA) [%]
O=C1CCCN1CCOc1ccccc1C1CCN([C@@H]2CCC3(C2)CN(C(=O)C2(F)CC2)C3)CC1.O=CO (single isomer, unassigned) [Example 7P, (R)-1-(2-(2-(1-(2-(1-fluorocyclopropane-1-carbonyl)-2-azaspiro[3.4]octan-6-yl)piperidin-4-yl)phenoxy)ethyl)pyrrolidin-2-one formate salt or (S)-1-(2-(2-(1-(2-(1-fluorocyclopropane-1-carbonyl)-2-azaspiro[3.4]octan-6-yl)piperidin-4-yl)phenoxy)ethyl)pyrrolidin-2-one formate salt]	46	0.029	0	> 25	0	> 25	–	–	–
COc1ccccc1C1CCN([C@@H]2CCC3(C2)CN(c2ncns2)C3)CC1 (single isomer, unassigned) [Example 10Q, (R)-5-(6-(4-(2-methoxyphenyl)piperidin-1-yl)-2-azaspiro[3.4]octan-2-yl)-1,2,4-thiadiazole or (S)-5-(6-(4-(2-methoxyphenyl)piperidin-1-yl)-2-azaspiro[3.4]octan-2-yl)-1,2,4-thiadiazole]	66	0.17	0	> 25	0	> 25	–	–	–
O=C(N1CC2(CC[C@@H](N3CCC(c4ccccc4OC4CCOCC4)CC3)C2)C1)C1(F)CC1 (single isomer, unassigned) [Example 9F, (R)-(1-fluorocyclopropyl)(6-(4-(2-((tetrahydro-2H-pyran-4-yl)oxy)phenyl)piperidin-1-yl)-2-azaspiro[3.4]octan-2-yl)methanone or (S)-(1-fluorocyclopropyl)(6-(4-(2-((tetrahydro-2H-pyran-4-yl)oxy)phenyl)piperidin-1-yl)-2-azaspiro[3.4]octan-2-yl)methanone]	0	> 25	0	> 25	0	> 25	–	–	–
Cc1coc(N2CC3(CC[C@@H](N4CCC(c5ccc(F)cc5OCC(C)(C)O)CC4)C3)C2)n1 [Example 3N, (R)-1-(5-fluoro-2-(1-(2-(4-methyloxazol-2-yl)-2-azaspiro[3.4]octan-6-yl)piperidin-4-yl)phenoxy)-2-methylpropan-2-ol]	–	> 25	–	> 25	–	> 25	0	0	0

Second part, the compound after the results:

M1 FDSS PA [1] [%]	EC50 [1] [µM]	M3 FDSS PA [2, 4] [%]	EC50 [2] [µM]	M5 FDSS PA [3, 4] [%]	EC50 [3] [µM]	Emax ([1]; HEK293, Percent Activity, read-out: M1 FDSS PA) [%]	Emax ([2]; Percent Activity measured to EC100 of Carbachol, read-out: M3 FDSS PA) [%]	Emax ([3]; Percent Activity measured to EC100 of Carbachol, read-out: M5 FDSS PA) [%]	SMILES
55	0.047	0	> 25	0	> 25	–	–	–	O=C(N1CC2(CC[C@@H](N3CCC(c4ccccc4OC(F)(F)F)CC3)C2)C1)C1(F)CC1 (single isomer, unassigned) [Example 9B, (R)-(1-fluorocyclopropyl)(6-(4-(2-(trifluoromethoxy)phenyl)piperidin-1-yl)-2-azaspiro[3.4]octan-2-yl)methanone or (S)-(1-fluorocyclopropyl)(6-(4-(2-(trifluoromethoxy)phenyl)piperidin-1-yl)-2-azaspiro[3.4]octan-2-yl)methanone]
57	0.139	0	> 25	0	> 25	–	–	–	O=C(N1CC2(CC[C@@H](N3CCC(c4ccccc4OCCC(F)(F)F)CC3)C2)C1)C1(F)CC1 (single isomer, unassigned) [Example 7AA, (R)-(1-fluorocyclopropyl)(6-(4-(2-(3,3,3-trifluoropropoxy)phenyl)piperidin-1-yl)-2-azaspiro[3.4]octan-2-yl)methanone or (S)-(1-fluorocyclopropyl)(6-(4-(2-(3,3,3-trifluoropropoxy)phenyl)piperidin-1-yl)-2-azaspiro[3.4]octan-2-yl)methanone]
18	2.3	0	> 25	0	> 25	–	–	–	Cc1ncc(COc2ccccc2C2CCN([C@@H]3CCC4(C3)CN(C(=O)C3(F)CC3)C4)CC2)o1 (single isomer, unassigned) [Example 7V, (R)-(1-fluorocyclopropyl)(6-(4-(2-((2-methyloxazol-5-yl)methoxy)phenyl)piperidin-1-yl)-2-azaspiro[3.4]octan-2-yl)methanone or (S)-(1-fluorocyclopropyl)(6-(4-(2-((2-methyloxazol-5-yl)methoxy)phenyl)piperidin-1-yl)-2-azaspiro[3.4]octan-2-yl)methanone]
63	0.03	0	> 25	0	> 25	–	–	–	COc1ccc(Cl)cc1C1CCN([C@H]2CCC3(C2)CN(C(=O)C2(F)CC2)C3)CC1 (single isomer, unassigned) [Example 8B, (S)-(6-(4-(5-chloro-2-methoxyphenyl)piperidin-1-yl)-2-azaspiro[3.4]octan-2-yl)(1-fluorocyclopropyl)methanone or (R)-(6-(4-(5-chloro-2-methoxyphenyl)piperidin-1-yl)-2-azaspiro[3.4]octan-2-yl)(1-fluorocyclopropyl)methanone]
